In ChEMBL document CHEMBL1133400, “Synthesis and pharmacology of a novel pyrrolo[2,1,5-cd] indolizine (NNC 45-0095), a high affinity non-steroidal agonist for the estrogen receptor” (Bioorg Med Chem Lett, 2000):

Key:
[1] = target: Estrogen receptor (Mus musculus) (UniProt O08537+P19785); experiment: Percent maximal relative agonism for uterotrophic activity in immature mouse model; type: functional
[2] = system: Ishikawa; experiment: Percentp stimulation of alkaline phosphate activity in Ishikawa human endometrial adenocarcinoma cells relative to Moxestrol; type: functional
[3] = target: Estrogen receptor (Mus musculus, UniProt O08537+P19785); experiment: Uterotrophic activity in immature mouse; type: functional, tissue-based, Uterus
[4] = system: Ishikawa; experiment: Stimulation of endometrial activity in Ishikawa human endometrial adenocarcinoma cells; type: functional, cell-based
[5] = target: Estrogen receptor (Homo sapiens, UniProt Q92731+P03372); experiment: Binding affinity for estrogen receptor of rabbit uterine […] muscle tissue; type: protein assay, Oryctolagus cuniculus; conditions: target entry is the homologue from another species

Sequence of Estrogen receptor (Mus musculus) (O08537 whole entry, looked up): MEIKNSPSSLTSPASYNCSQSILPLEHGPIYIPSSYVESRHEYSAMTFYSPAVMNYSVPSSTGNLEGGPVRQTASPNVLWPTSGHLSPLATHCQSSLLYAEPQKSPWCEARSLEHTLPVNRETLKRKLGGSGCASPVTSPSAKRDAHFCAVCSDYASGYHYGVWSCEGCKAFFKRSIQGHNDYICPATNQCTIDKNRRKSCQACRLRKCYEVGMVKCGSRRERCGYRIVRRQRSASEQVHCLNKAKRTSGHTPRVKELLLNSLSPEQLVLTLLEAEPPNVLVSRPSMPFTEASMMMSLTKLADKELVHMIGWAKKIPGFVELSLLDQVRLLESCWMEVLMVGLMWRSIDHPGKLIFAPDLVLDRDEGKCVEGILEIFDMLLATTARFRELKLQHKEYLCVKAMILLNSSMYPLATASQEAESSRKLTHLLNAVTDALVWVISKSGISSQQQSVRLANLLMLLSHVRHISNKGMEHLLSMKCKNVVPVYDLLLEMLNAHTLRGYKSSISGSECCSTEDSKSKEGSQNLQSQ
Sequence of Estrogen receptor (Mus musculus) (P19785 whole entry, looked up): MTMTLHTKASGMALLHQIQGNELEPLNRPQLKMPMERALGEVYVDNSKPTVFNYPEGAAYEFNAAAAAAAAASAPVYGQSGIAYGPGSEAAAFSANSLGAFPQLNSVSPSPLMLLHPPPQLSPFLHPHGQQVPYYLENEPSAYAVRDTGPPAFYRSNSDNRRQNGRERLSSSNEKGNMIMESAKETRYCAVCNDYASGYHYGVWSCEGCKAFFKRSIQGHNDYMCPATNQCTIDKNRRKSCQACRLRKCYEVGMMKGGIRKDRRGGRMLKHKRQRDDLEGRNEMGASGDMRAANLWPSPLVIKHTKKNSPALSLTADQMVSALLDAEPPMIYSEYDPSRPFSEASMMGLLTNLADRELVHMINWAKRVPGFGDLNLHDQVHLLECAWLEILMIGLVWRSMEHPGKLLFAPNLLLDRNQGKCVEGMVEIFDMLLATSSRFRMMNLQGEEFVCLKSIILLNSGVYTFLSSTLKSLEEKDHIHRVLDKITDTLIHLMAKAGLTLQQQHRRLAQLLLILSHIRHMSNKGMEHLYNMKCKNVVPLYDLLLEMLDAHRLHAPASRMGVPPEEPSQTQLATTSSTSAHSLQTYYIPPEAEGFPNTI

SMILES	Activity [1]	Emax [2]	EC50 [3]	EC50 [4]	IC50 [5]
CCc1c(-c2ccc(O)cc2)c2ccc3cccc1n32	76%	105%	0.96 nM/g	13 nM	–
C#C[C@]1(O)CC[C@H]2C3CCc4cc(O)ccc4[C@H]3[C@@H](OC)C[C@@]21C (single isomer, unassigned) [MOXESTROL]	–	100%	–	0.1 nM	2.5 nM
